Measured values taken from patent publication US20140323506A1, “COMBINATION” (GlaxoSmithKline Intellectual Property Development Limited, priority 2010, published 2014).

Tests used:
Assay type in all cases: in vivo, CD-1 nude mice
[1] = Body weight of nude mice bearing A375P F11s xenografts during treatment
Procedure: (§1) Female CD-1 nude mice of 6-8 weeks in age were used in these studies; all mice were obtained from Charles River Laboratories (Wilmington, Del.). Animals were housed in pathogen free conditions and handled with aseptic technique.
(§2) Mice with similar sized tumors (100-300 mm^3) were identified. The length and width of the tumors were measured by handheld calipers and body weights of the mice were measured using a bench top weighing scale. Tumor volumes were calculated based on the following formula: tumor volume=(Length×Width^2)/2. Mice were block randomized into the required number of dosing groups (n=8 mice/group). The randomization process ensured that the average tumor volume for each dosing group was approximately equal at the beginning of the study and mice with differing tumor volumes were evenly distributed. Mice were placed in groups of eight accordingly and dosed with either vehicle or compound for 36 days either once or twice daily, as summarised in the table below. Mice were weighed and tumors measured twice weekly for the duration of the study using Studylog animal study management software (Studylog Systems, Inc., South San Francisco, Calif., USA).

[2] = system: A375P F11s tumor xenografts; assay: A375P F11s tumor xenograft efficacy in nude mice
Procedure: as §1
The A375P F11s cell line, encoding a mutation for BRAF^V600E, was subcloned from the A375P human melanoma cell line (obtained from ATCC, Cat # CRL-1619).
The A375P F11s cell lines were grown in RPMI growth medium supplemented with 10% fetal bovine serum (FBS), 1% sodium pyruvate and 1% penicillin-streptomycin in a humidified 37° C. chamber with 5% CO2. Cells were expanded to obtain the large numbers of cells required for each injection; cells were grown in log phase, without reaching confluency and passaged regularly.
A375P F11s cells were harvested from culture flasks by exposure to 0.25% trypsin/EDTA for 5 min at 37° C. Detached cells were collected, centrifuged (1500 rpm, 5 min, 4° C.) and rinsed to remove the trypsin solution. Cells were re-suspended in PBS without magnesium or calcium and counted. Cells were spun as described previously to remove PBS and a single cell suspension was created in 50% Matrigel: 50% PBS (v:v) so that a 100 μL subcutaneous injection would deliver 1.75 million cells per mouse.
Compounds were administered in vehicles as described below.
as §2
Tumor volumes were calculated based on the following formula: tumor volume=(Length×Width^2)/2. Tumor growth curves were created from the mean±standard error of the mean, with n=8 animals per group. The percentage of tumor growth inhibition was calculated on the final day of dosing using the following formula: 1—(tumor volume in drug-treated population/tumor volume in vehicle-treated control population).

[3] = system: A375P F11s tumor xenografts; assay: A375P F11s tumor xenograft efficacy in nude mice; remark: listed apart in the source
[4] = Group 3: Compound B 0.1 mg/kg PO QD, study day 0
[5] = Group 3: Compound B 0.1 mg/kg PO QD, study day 3
[6] = Group 3: Compound B 0.1 mg/kg PO QD, study day 7
[7] = Group 3: Compound B 0.1 mg/kg PO QD, study day 9
[8] = Group 3: Compound B 0.1 mg/kg PO QD, study day 15
[9] = Group 3: Compound B 0.1 mg/kg PO QD, study day 18
[10] = Group 3: Compound B 0.1 mg/kg PO QD, study day 22
[11] = Group 3: Compound B 0.1 mg/kg PO QD, study day 25
[12] = Group 3: Compound B 0.1 mg/kg PO QD, study day 28
[13] = Group 6: Compound B 0.3 mg/kg PO QD, study day 0
[14] = Group 6: Compound B 0.3 mg/kg PO QD, study day 3
[15] = Group 6: Compound B 0.3 mg/kg PO QD, study day 7
[16] = Group 6: Compound B 0.3 mg/kg PO QD, study day 9
[17] = Group 6: Compound B 0.3 mg/kg PO QD, study day 15
[18] = Group 6: Compound B 0.3 mg/kg PO QD, study day 18
[19] = Group 6: Compound B 0.3 mg/kg PO QD, study day 22
[20] = Group 6: Compound B 0.3 mg/kg PO QD, study day 25
[21] = Group 6: Compound B 0.3 mg/kg PO QD, study day 28
[22] = Group 6: Compound B 0.3 mg/kg PO QD, study day 31
[23] = Group 6: Compound B 0.3 mg/kg PO QD, study day 35
[24] = Group 6: Compound B 0.3 mg/kg PO QD, study day 37

## Cc1ccc(Nc2nccc(N(C)c3ccc4c(C)n(C)nc4c3)n2)cc1S(N)(=O)=O [Compound A, 5-[[4-[(2,3-dimethyl-2H-indazol-6-yl)methylamino]-2-pyrimidinyl]amino]-2-methylbenzenesulfonamide, reference compound]
[1]; Group 2: Compound A 100 mg/kg PO BID, study day 0
  Mean body weight: 24.98 g
[1]; Group 2: Compound A 100 mg/kg PO BID, study day 3
  Mean body weight: 25.13 g
[1]; Group 2: Compound A 100 mg/kg PO BID, study day 7
  Mean body weight: 25.63 g
[1]; Group 2: Compound A 100 mg/kg PO BID, study day 9
  Mean body weight: 25.29 g
[1]; Group 2: Compound A 100 mg/kg PO BID, study day 15
  Mean body weight: 24.83 g
[1]; Group 2: Compound A 100 mg/kg PO BID, study day 18
  Mean body weight: 25.35 g
[1]; Group 2: Compound A 100 mg/kg PO BID, study day 22
  Mean body weight: 24.71 g
[1]; Group 2: Compound A 100 mg/kg PO BID, study day 25
  Mean body weight: 24.79 g
[1]; Group 2: Compound A 100 mg/kg PO BID, study day 28
  Mean body weight: 24.91 g
[1]; Group 2: Compound A 100 mg/kg PO BID, study day 31
  Mean body weight: 25.33 g
[1]; Group 2: Compound A 100 mg/kg PO BID, study day 35
  Mean body weight: 24.95 g
[1]; Group 2: Compound A 100 mg/kg PO BID, study day 37
  Mean body weight: 25.00 g

## CC(=O)Nc1cccc(-n2c(=O)n(C3CC3)c(=O)c3c(Nc4ccc(I)cc4F)n(C)c(=O)c(C)c32)c1 [Compound B, N-{3-[3-cyclopropyl-5-(2-fluoro-4-iodo-phenylamino)-6,8-dimethy-2,4,7-trioxo-3,4,6,7-tetrahydro-2H-pyrido[4,3-d]pyrimidin-1-yl]phenyl}acetamide]
[2]; Compound B 0.3 mg/kg QD
  smaller tumors compared to vehicle control: 70.4%
[2]; Compound B alone 0.3 mg/kg, treatment continued until day 37
  tumor volume course under extended treatment: tumor volume started to increase even under continued drug treatment
[2]; [4]
  Mean tumor volume: 199.3 mm^3
  Percent inhibition of tumor volume compared to vehicle treated mice: −15.70%
[2]; [5]
  Mean tumor volume: 260.5 mm^3
[2]; [6]
  Mean tumor volume: 300.8 mm^3
  Percent inhibition of tumor volume compared to vehicle treated mice: 3.1%
[2]; [7]
  Mean tumor volume: 335.1 mm^3
  Percent inhibition of tumor volume compared to vehicle treated mice: 14.2%
[2]; [8]
  Mean tumor volume: 459.3 mm^3
  Percent inhibition of tumor volume compared to vehicle treated mice: 28.2%
[2]; [9]
  Mean tumor volume: 616.2 mm^3
  Percent inhibition of tumor volume compared to vehicle treated mice: 15.3%
[2]; [10]
  Mean tumor volume: 916.9 mm^3
[2]; [11]
  Mean tumor volume: 1,100.3 mm^3
  Percent inhibition of tumor volume compared to vehicle treated mice: −1.0%
[2]; [12]
  Mean tumor volume: 1,338.4 mm^3
  Percent inhibition of tumor volume compared to vehicle treated mice: −6.8%
[2]; [13]
  Mean tumor volume: 198.8 mm^3
[2]; [14]
  Mean tumor volume: 205.9 mm^3
  Percent inhibition of tumor volume compared to vehicle treated mice: 17.7%
[2]; [15]
  Mean tumor volume: 141.2 mm^3
  Percent inhibition of tumor volume compared to vehicle treated mice: 54.5%
[2]; [16]
  Mean tumor volume: 124.4 mm^3
[2]; [17]
  Mean tumor volume: 115.1 mm^3
[2]; [18]
  Mean tumor volume: 141.4 mm^3
  Percent inhibition of tumor volume compared to vehicle treated mice: 80.5%
[2]; [19]
  Mean tumor volume: 217.3 mm^3
[2]; [20]
  Mean tumor volume: 300.3 mm^3
  Percent inhibition of tumor volume compared to vehicle treated mice: 72.4%
[2]; [21]
  Mean tumor volume: 370.6 mm^3
  Percent inhibition of tumor volume compared to vehicle treated mice: 70.4%
[2]; [22]
  Mean tumor volume: 450.5 mm^3
[2]; [23]
  Mean tumor volume: 529.1 mm^3
[2]; [24]
  Mean tumor volume: 604.4 mm^3
[1]; [4]
  Mean body weight: 26.30 g
[1]; [5]
  Mean body weight: 26.00 g
[1]; [6]
  Mean body weight: 26.24 g
[1]; [7]
  Mean body weight: 26.23 g
[1]; [8]
  Mean body weight: 26.09 g
[1]; [9]
  Mean body weight: 27.09 g
[1]; [10]
  Mean body weight: 26.73 g
[1]; [11]
  Mean body weight: 26.80 g
[1]; [12]
  Mean body weight: 26.93 g
[1]; [13]
  Mean body weight: 24.59 g
[1]; [14]
  Mean body weight: 24.10 g
[1]; [15]
  Mean body weight: 23.89 g
[1]; [16]
  Mean body weight: 23.93 g
[1]; [17]
  Mean body weight: 23.94 g
[1]; [18]
  Mean body weight: 24.41 g
[1]; [19]
  Mean body weight: 23.83 g
[1]; [20]
  Mean body weight: 23.95 g
[1]; [21]
  Mean body weight: 24.18 g
[1]; [22]
  Mean body weight: 24.49 g
[1]; [23]
  Mean body weight: 24.54 g
[1]; [24]
  Mean body weight: 24.64 g
[3]; [5]
  Percent inhibition of tumor volume compared to vehicle treated mice: −4.1%
[3]; [10]
  Percent inhibition of tumor volume compared to vehicle treated mice: 2.1%
[3]; [13]
  Percent inhibition of tumor volume compared to vehicle treated mice: −15.41%
[3]; [16]
  Percent inhibition of tumor volume compared to vehicle treated mice: 68.1%
[3]; [17]
  Percent inhibition of tumor volume compared to vehicle treated mice: 82.0%
[3]; [19]
  Percent inhibition of tumor volume compared to vehicle treated mice: 76.8%
